Laboratory results as given in ChEMBL document CHEMBL1139197, “Synthesis, structural analysis, and SAR studies of triazine derivatives as potent, selective Tie-2 inhibitors” (Bioorg Med Chem Lett, 2007).
Values after ≈ are worked out from the molar mass of the structure shown.

Legend:
[1] = molecular target: T1, Vascular endothelial growth factor receptor 2 (Homo sapiens, UniProt P35968); assay: Inhibition of KDR after 90 mins by HTRF assay
Angiopoietin-1 receptor [2] = molecular target: T2, Angiopoietin-1 receptor (Homo sapiens, UniProt Q02763); assay: Inhibition of Tie2 after 90 mins by HTRF assay
T2 sequence (Q02763 whole entry): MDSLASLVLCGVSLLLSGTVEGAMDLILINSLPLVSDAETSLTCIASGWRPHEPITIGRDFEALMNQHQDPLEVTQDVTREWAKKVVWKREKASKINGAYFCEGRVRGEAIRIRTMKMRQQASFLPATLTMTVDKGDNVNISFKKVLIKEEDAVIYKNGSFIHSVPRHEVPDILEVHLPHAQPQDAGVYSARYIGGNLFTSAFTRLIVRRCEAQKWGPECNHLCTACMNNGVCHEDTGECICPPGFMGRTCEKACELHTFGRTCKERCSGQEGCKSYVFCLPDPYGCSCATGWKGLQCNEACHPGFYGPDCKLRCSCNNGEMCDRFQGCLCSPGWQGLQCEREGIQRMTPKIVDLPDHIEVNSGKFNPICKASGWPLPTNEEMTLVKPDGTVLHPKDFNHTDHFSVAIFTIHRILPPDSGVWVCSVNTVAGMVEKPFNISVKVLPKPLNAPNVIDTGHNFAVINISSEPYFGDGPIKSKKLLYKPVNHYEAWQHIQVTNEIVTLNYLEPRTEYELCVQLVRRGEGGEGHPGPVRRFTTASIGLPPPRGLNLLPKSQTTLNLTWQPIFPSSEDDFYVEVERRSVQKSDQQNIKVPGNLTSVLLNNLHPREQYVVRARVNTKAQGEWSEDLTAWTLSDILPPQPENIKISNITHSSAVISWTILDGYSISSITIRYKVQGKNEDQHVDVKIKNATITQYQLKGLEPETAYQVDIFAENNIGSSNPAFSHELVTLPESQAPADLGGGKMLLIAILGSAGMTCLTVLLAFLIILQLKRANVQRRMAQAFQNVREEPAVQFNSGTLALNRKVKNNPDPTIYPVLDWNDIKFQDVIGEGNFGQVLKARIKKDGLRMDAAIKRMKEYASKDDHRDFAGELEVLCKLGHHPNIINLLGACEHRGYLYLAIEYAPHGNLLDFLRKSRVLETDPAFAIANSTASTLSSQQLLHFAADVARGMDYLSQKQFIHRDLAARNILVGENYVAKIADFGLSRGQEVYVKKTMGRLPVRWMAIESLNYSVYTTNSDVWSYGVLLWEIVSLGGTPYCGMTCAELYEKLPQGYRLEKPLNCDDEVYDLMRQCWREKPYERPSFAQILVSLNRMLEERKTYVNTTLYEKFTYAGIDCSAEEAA

Angiopoietin-1 receptor [3] = molecular target: T2, Angiopoietin-1 receptor; assay: Inhibition of Tie2 autophosphorylation in EA.hy926 cells after […]; format: cell-based
[4] = Clearance in Sprague-Dawley rat at 2 mg/kg, iv; format: ADME, organism-based; parameters: dose 2 mg/kg, route intravenous; conditions: in vivo
[5] = molecular target: T1, Vascular endothelial growth factor receptor 2; assay: Inhibition of KDR autophosphorylation in EA.hy926 cells after […]; format: cell-based
[6] = Half life in Sprague-Dawley rat at 2 mg/kg, iv; format: ADME, organism-based; parameters: dose 2 mg/kg, route intravenous; conditions: in vivo
[7] = Mean residence time in Sprague-Dawley rat; format: ADME, organism-based; conditions: in vivo
[8] = molecular target: Vascular endothelial growth factor receptor 2 and tyrosine-protein kinase TIE-2 (KDR and TIE2) (Homo sapiens) (UniProt P35968+Q02763); assay: Selectivity for Tie2 over KDR in cell based autophosphorylation assay
[9] = molecular target: T3, Mitogen-activated protein kinase 14 (Homo sapiens, UniProt Q16539); assay: Inhibition of p38-alpha by radioactive filtration assay
T3 sequence (Q16539 whole entry): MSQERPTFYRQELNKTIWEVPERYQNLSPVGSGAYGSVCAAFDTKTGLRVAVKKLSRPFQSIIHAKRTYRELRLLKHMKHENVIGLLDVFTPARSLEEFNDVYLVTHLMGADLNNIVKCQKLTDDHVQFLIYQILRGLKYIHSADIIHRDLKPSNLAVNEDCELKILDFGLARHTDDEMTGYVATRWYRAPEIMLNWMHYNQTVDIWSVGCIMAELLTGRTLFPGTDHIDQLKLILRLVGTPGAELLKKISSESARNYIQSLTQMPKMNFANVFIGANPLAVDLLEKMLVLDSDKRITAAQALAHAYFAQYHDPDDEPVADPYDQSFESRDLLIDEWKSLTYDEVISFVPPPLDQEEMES

[10] = AUC (0 to infinity) in Sprague-Dawley rat at 10 mg/kg, po; format: ADME, organism-based; parameters: time infinity, dose 10 mg/kg, route oral; conditions: plasma
[11] = Cmax in Sprague-Dawley rat at 10 mg/kg, po; format: ADME, organism-based; parameters: dose 10 mg/kg, route oral; conditions: in vivo
[12] = molecular target: Tyrosine-protein kinase Lck (Homo sapiens, UniProt P06239); assay: Inhibition of Lck by radioactive filtration assay
Chain of Tyrosine-protein kinase Lck (P06239 whole entry): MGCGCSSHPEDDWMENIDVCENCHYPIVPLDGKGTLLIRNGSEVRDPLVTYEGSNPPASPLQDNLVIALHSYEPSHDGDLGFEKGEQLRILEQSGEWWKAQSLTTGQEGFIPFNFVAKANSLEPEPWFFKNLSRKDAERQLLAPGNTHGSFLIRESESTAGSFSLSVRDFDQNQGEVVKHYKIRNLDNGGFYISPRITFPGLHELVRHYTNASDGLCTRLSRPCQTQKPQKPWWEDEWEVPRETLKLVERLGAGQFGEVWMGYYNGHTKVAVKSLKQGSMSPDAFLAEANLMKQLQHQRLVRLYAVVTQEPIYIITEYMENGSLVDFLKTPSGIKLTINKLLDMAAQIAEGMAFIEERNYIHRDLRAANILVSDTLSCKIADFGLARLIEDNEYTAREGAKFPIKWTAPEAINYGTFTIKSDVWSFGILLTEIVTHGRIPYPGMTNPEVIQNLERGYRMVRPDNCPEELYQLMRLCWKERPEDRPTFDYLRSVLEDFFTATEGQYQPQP

[13] = molecular target: Tyrosine-protein kinase JAK2 (Homo sapiens, UniProt O60674); assay: Inhibition of Jak2 by radioactive filtration assay
Chain of Tyrosine-protein kinase JAK2 (O60674 whole entry): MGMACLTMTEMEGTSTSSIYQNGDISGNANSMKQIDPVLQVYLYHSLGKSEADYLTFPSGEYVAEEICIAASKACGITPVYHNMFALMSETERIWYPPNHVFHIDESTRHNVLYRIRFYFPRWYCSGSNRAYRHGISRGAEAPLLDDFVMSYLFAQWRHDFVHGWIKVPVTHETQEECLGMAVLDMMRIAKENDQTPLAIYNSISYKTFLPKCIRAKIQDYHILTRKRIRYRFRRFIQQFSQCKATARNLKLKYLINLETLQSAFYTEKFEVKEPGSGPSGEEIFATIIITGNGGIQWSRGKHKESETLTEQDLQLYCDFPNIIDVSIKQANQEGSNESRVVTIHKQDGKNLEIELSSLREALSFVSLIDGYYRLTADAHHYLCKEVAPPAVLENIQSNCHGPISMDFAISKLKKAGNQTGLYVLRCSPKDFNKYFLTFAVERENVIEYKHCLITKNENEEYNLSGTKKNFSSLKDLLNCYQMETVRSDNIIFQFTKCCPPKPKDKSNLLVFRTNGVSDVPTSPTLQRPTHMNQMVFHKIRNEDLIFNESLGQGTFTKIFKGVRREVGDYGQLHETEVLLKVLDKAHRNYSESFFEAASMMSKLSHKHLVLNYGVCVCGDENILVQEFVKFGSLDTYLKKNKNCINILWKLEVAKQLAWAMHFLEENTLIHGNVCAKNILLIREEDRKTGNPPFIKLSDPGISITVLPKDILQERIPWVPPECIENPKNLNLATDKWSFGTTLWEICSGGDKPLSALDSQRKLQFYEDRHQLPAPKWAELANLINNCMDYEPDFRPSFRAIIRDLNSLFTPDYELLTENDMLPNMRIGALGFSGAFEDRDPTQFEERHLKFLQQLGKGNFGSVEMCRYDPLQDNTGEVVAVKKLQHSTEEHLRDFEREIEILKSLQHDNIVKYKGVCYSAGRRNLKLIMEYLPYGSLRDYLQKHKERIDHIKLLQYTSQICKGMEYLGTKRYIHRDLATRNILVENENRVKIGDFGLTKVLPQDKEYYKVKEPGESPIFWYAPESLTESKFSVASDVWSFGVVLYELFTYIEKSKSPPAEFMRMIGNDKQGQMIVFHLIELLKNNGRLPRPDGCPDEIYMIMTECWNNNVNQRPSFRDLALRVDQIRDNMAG

[14] = molecular target: Mitogen-activated protein kinase 10 (Homo sapiens, UniProt P53779); assay: Inhibition of JNK3 by radioactive filtration assay
[15] = molecular target: T3, Mitogen-activated protein kinase 14; assay: Inhibition of p38-alpha in THP1 cells assessed as TNFalpha levels; format: cell-based, THP-1
[16] = Solubility in 0.01 N HCl at pH 2.0; format: physicochemical
[17] = Volume of distribution in Sprague-Dawley rat at 2 mg/kg, iv; format: ADME, organism-based; parameters: dose 2 mg/kg, route intravenous; conditions: in vivo, read-out: Vdss
[18] = Solubility in phosphate buffer at pH 7.1; format: physicochemical
[19] = molecular target: Proto-oncogene tyrosine-protein kinase Src (Homo sapiens, UniProt P12931); assay: Inhibition of Src by radioactive filtration assay
Chain of Proto-oncogene tyrosine-protein kinase Src (P12931 2-536 limits assumed): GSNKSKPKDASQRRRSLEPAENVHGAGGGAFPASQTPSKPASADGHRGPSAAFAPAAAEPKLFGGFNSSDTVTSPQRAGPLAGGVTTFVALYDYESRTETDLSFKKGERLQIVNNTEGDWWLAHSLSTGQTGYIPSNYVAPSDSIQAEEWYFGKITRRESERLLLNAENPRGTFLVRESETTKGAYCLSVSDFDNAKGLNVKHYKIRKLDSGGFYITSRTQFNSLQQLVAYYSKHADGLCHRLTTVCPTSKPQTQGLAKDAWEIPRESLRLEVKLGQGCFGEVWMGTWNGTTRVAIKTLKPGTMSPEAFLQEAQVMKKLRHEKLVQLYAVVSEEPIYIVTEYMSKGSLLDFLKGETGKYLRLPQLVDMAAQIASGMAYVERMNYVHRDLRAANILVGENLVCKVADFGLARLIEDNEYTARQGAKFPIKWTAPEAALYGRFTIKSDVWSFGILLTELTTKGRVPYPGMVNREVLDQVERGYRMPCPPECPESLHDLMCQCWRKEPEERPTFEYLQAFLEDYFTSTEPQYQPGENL

[20] = Oral bioavailability in Sprague-Dawley rat at 10 mg/kg, po; format: ADME, organism-based; conditions: in vivo
[21] = molecular target: Fibroblast growth factor receptor (Homo sapiens, UniProt P22607+P11362+P22455+P21802); assay: Inhibition of FGFR by radioactive filtration assay; format: protein assay
[22] = molecular target: Mast/stem cell growth factor receptor Kit (Homo sapiens, UniProt P10721); assay: Inhibition of cKit by radioactive filtration assay

T1 sequence (P35968 whole entry): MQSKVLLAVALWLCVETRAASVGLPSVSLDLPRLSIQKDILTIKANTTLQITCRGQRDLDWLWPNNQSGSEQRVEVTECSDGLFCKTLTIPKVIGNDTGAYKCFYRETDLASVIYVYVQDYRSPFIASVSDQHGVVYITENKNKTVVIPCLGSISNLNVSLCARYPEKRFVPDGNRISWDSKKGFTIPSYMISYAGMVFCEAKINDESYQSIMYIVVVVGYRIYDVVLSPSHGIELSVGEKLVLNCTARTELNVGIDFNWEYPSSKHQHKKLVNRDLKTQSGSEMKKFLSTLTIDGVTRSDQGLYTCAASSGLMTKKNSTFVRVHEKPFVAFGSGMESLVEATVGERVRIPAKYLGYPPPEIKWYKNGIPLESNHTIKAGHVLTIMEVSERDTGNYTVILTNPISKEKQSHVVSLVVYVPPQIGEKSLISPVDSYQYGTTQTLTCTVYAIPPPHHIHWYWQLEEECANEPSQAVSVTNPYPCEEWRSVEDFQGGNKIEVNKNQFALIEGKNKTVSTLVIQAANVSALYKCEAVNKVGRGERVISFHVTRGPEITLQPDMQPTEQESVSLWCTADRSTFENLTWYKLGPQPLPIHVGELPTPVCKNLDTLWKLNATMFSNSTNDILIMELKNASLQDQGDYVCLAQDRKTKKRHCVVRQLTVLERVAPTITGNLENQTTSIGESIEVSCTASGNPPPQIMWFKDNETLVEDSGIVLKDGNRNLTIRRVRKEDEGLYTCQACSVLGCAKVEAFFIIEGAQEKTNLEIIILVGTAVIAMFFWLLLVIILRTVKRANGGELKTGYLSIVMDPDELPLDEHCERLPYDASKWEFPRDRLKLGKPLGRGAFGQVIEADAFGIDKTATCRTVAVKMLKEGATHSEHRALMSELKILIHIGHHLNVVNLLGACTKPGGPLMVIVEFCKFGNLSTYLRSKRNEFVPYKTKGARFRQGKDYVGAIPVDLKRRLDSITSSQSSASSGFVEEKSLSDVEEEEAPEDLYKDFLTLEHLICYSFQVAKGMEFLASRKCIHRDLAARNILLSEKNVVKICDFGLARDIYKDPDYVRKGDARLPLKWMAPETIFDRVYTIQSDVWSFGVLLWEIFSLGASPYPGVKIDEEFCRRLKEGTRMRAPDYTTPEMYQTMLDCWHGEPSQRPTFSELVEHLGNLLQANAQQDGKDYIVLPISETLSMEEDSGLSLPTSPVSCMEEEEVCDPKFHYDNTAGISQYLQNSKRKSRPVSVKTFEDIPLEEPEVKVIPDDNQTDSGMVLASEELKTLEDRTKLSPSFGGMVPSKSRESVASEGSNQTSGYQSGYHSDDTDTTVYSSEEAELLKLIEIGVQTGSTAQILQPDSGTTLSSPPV

Row | Compound | IC50 [1] [nM] | IC50 (Angiopoietin-1 receptor [2]) [nM] | IC50 (Angiopoietin-1 receptor [3]) [nM] | clearance [4] [mL/min/kg] | further results
1 | Cc1ccc(NC(=O)c2cccc(C(F)(F)F)c2)cc1Nc1ncccc1-c1ccncn1 | 61 |  |  |  | 
2 | CNc1cc(-c2cccnc2Oc2cccc(NC(=O)c3cccc(C(C)C)c3)c2)ccn1 | 18 | 4 |  |  | 
3 | CNc1ncnc(-c2cccnc2Oc2cccc(NC(=O)c3cccc(C(C)C)c3)c2)n1 | 456 | 6 | 85 | 73.7 | 
4 | CNc1nccc(-c2cccnc2Oc2cc(C(=O)Nc3cccc(C(C)C)c3)ccc2C)n1 | 38 | 13 |  |  | 
5 | CNc1cc(-c2cccnc2Oc2cc(NC(=O)c3cccc(OC(F)(F)C(F)F)c3)ccc2C)ccn1 | 233 | 9 | 13 | 60.7 | IC50 [5]: 943 nM
6 | CNc1nccc(-c2cccnc2Oc2cc(NC(=O)c3cccc(C(C)C)c3)ccc2C)n1 | 2 | 2 |  |  | 
7 | CNc1ncnc(-c2cccnc2Oc2cc(NC(=O)c3cccc(OC(F)(F)F)c3)ccc2C)n1 | 442 | 8 | 15 | 83 | IC50 [5]: 540 nM
8 | CNc1cc(-c2cccnc2Oc2cc(C(=O)Nc3cccc(C(C)C)c3)ccc2C)ccn1 | 5 | 3 |  |  | 
9 | CNc1ncnc(-c2cccnc2Oc2cc(NC(=O)c3cccc(C(C)C)c3)ccc2C)n1 | 117 | 1 | 5 | 65.7 | 
10 | CNc1ncnc(-c2cccnc2Oc2cc(NC(=O)c3cccc(C(C)C)c3)cc(C(F)(F)F)c2)n1 | 25000 | 55 |  |  | 
11 | CNc1ncnc(-c2cccnc2Oc2cc(NC(=O)c3cccc(C(C)C)c3)ccc2F)n1 | 128 | 4 |  | 18.4 | half-life [6]: 0.8 h; MRT [7]: 0.5 h
12 | CNc1cc(-c2cccnc2Oc2cc(NC(=O)c3cccc(C(C)C)c3)ccc2C)ccn1 | 18 | 1 | 11 | 54.3 | 
13 | CNc1ncnc(-c2cccnc2Oc2cc(C(=O)Nc3cccc(C(C)C)c3)ccc2C)n1 | 20 | 1 |  |  | 
14 | CNc1ncnc(-c2cccnc2Oc2cc(NC(=O)c3cccc(-n4cccc4)c3)ccc2C)n1 | 1130 | 17 | 23 | 63.8 | Ratio IC50 [8]: > 1000; IC50 [5]: 25000 nM
15 | CNc1ncnc(-c2cccnc2Oc2cc(NC(=O)c3cccc(C(F)(F)F)c3)ccc2C)n1 | 309 | 20 |  |  | 
16 | CNc1ncnc(-c2cccnc2Oc2cc(NC(=O)c3cccc(OC(F)(F)C(F)F)c3)ccc2C)n1 | 1000 | 16 | 33 | 14.8 | IC50 [9]: 47 nM; AUC(0-inf) [10]: 509 ng·h/mL; Cmax [11]: 119 ng/mL; IC50 [12]: 146 nM; IC50 [13]: 1750 nM; IC50 [14]: 40000 nM; IC50 [15]: 194 nM; IC50 [5]: 4300 nM; half-life [6]: 1.7 h; solubility [16]: 21 µg/mL (≈ 39.7 µM); Vd [17]: 1.31 L/kg; solubility [18]: 3 µg/mL (≈ 5.68 µM); IC50 [19]: 2190 nM; MRT [7]: 1.5 h; bioavailability [20]: 4%; IC50 [21]: 5360 nM; IC50 [22]: 17800 nM
17 | CNc1cc(-c2cccnc2Oc2ccc(Cl)c(NC(=O)c3cccc(C(C)C)c3)c2)ccn1 | 9 | 6 |  |  | 
